{"source": "paper PMC10341786", "about": "(International Journal of Molecular Sciences, 2023)", "key": {"WNV": {"system": "WNV", "test": "microbe, parasite or virus in culture", "assay_type": "cell-based, West Nile virus strain Strix nebulosa-12", "conditions": "for EC50: West Nile virus, Vero, read-out: WNV EC50"}, "in vitro [1]": {"test": "in vitro", "conditions": "pig"}, "in vitro [2]": {"test": "in vitro", "conditions": "pig", "remark": "listed apart in the source"}, "YFV": {"system": "YFV", "test": "microbe, parasite or virus in culture", "assay_type": "cell-based, yellow fever virus strain 17D", "conditions": "Yellow fever virus, read-out: YFV EC50"}, "in vitro [3]": {"test": "in vitro", "conditions": "African green monkey"}, "TBEV": {"system": "TBEV", "test": "microbe, parasite or virus in culture", "assay_type": "cell-based, Tick-borne encephalitis virus strain Absettarov", "conditions": "Tick-borne encephalitis virus, PEK, read-out: TBEV EC50"}, "in vitro [4]": {"test": "in vitro", "conditions": "African green monkey", "remark": "listed apart in the source"}, "DENV-2": {"system": "DENV-2", "conditions": "cited from earlier work"}, "DENV-1": {"system": "DENV-1", "conditions": "cited from earlier work"}, "DENV-3": {"system": "DENV-3", "conditions": "cited from earlier work"}}}
{"smiles": "O=S(=O)(Cc1ccccc1)NC1=NOC2(CCCCCCC2)C1", "note": "[3b]", "values": [{"measurement": "EC50", "setting": "WNV", "value": "9.9 ± 1.5", "unit": "µM"}, {"measurement": "CC50", "setting": "in vitro [1]", "value": "> 50", "unit": "µM"}, {"measurement": "CC50", "setting": "in vitro [2]", "value": "> 50", "unit": "µM"}, {"measurement": "EC50", "setting": "YFV", "value": "24 ± 11", "unit": "µM"}, {"measurement": "CC50", "setting": "in vitro [3]", "value": "> 50", "unit": "µM"}, {"measurement": "EC50", "setting": "TBEV", "value": "13 ± 8", "unit": "µM"}, {"measurement": "CC50", "setting": "in vitro [4]", "value": "> 50", "unit": "µM"}]}
{"smiles": "O=S(=O)(NC1=NOC2(CCCCCCC2)C1)c1ccc2ccccc2c1", "note": "[3j]", "values": [{"measurement": "EC50", "setting": "WNV", "value": "20.3 ± 0.3", "unit": "µM"}, {"measurement": "CC50", "setting": "in vitro [1]", "value": "> 50", "unit": "µM"}, {"measurement": "acute and chronic cytotoxicity in Vero cells (in words)", "setting": "Vero cells", "value": "both acute and chronic cytotoxicity"}, {"measurement": "CC50", "setting": "in vitro [2]", "value": "> 50", "unit": "µM"}, {"measurement": "EC50", "setting": "TBEV", "value": "20 ± 11", "unit": "µM"}]}
{"smiles": "O=[N+]([O-])c1ccccc1S(=O)(=O)N(C1=NOC2(CCCCCCC2)C1)S(=O)(=O)c1ccccc1[N+](=O)[O-]", "note": "[4h, 2-Nitro-N-((2-nitrophenyl)sulfonyl)-N-(1-oxa-2-azaspiro[4.7]dodec-2-en-3-yl)benzenesulfonamide]", "values": [{"measurement": "EC50", "setting": "WNV", "value": "7.8 ± 1", "unit": "µM"}, {"measurement": "CC50", "setting": "in vitro [1]", "value": "> 50", "unit": "µM"}, {"measurement": "acute and chronic cytotoxicity in Vero cells (in words)", "setting": "Vero cells", "value": "only acute toxic"}, {"measurement": "CC50", "setting": "in vitro [2]", "value": "> 50", "unit": "µM"}, {"measurement": "melting point", "value": "155 to 157", "unit": "°C"}, {"measurement": "EC50", "setting": "TBEV", "value": "20 ± 11", "unit": "µM"}]}
{"smiles": "O=[N+]([O-])c1ccc(S(=O)(=O)N(C2=NOC3(CCCCCCC3)C2)S(=O)(=O)c2ccc([N+](=O)[O-])cc2)cc1", "note": "[4i, 4-Nitro-N-((4-nitrophenyl)sulfonyl)-N-(1-oxa-2-azaspiro[4.7]dodec-2-en-3-yl)benzenesulfonamide]", "values": [{"measurement": "EC50", "setting": "WNV", "value": "5.3 ± 1", "unit": "µM"}, {"measurement": "CC50", "setting": "in vitro [1]", "value": "> 50", "unit": "µM"}, {"measurement": "acute and chronic cytotoxicity in Vero cells (in words)", "setting": "Vero cells", "value": "both acute and chronic cytotoxicity"}, {"measurement": "CC50", "setting": "in vitro [2]", "value": "> 50", "unit": "µM"}, {"measurement": "melting point", "value": "178 to 180", "unit": "°C"}, {"measurement": "EC50", "setting": "TBEV", "value": "2 ± 0.5", "unit": "µM"}]}
{"smiles": "O=[N+]([O-])c1ccc(S(=O)(=O)N(C2=NOC3CCCCCCC23)S(=O)(=O)c2ccc([N+](=O)[O-])cc2)cc1", "note": "(centres unmarked) [5i, 4-Nitro-N-((4-nitrophenyl)sulfonyl)-N-(3a,4,5,6,7,8,9,9a-octahydrocycloocta[d]isoxazol-3-yl)benzenesulfonamide]", "values": [{"measurement": "EC50", "setting": "WNV", "value": "19 ± 11", "unit": "µM"}, {"measurement": "CC50", "setting": "in vitro [1]", "value": "> 50", "unit": "µM"}, {"measurement": "CC50", "setting": "in vitro [2]", "value": "41 ± 1.8", "unit": "µM"}, {"measurement": "cytotoxicity against PEK cells during 7 days of incubation (in words)", "setting": "PEK cells", "value": "slightly toxic"}, {"measurement": "CC50", "setting": "in vitro [3]", "value": "> 50", "unit": "µM"}, {"measurement": "melting point", "value": "139 to 140", "unit": "°C"}, {"measurement": "EC50", "setting": "TBEV", "value": "19 ± 4", "unit": "µM"}, {"measurement": "CC50", "setting": "in vitro [4]", "value": "> 50", "unit": "µM"}]}
{"smiles": "O=S(=O)(c1ccc2ccccc2c1)N(C1=NOC2CCCCCCC12)S(=O)(=O)c1ccc2ccccc2c1", "note": "(centres unmarked) [5j, N-(Naphthalen-2-ylsulfonyl)-N-(3a,4,5,6,7,8,9,9a-octahydrocycloocta[d]isoxazol-3-yl)naphthalene-2-sulfonamide]", "values": [{"measurement": "EC50", "setting": "WNV", "value": "5.9 ± 1.8", "unit": "µM"}, {"measurement": "CC50", "setting": "in vitro [1]", "value": "> 50", "unit": "µM"}, {"measurement": "CC50", "setting": "in vitro [2]", "value": "> 50", "unit": "µM"}, {"measurement": "CC50", "setting": "in vitro [3]", "value": "> 50", "unit": "µM"}, {"measurement": "melting point", "value": "160 to 162", "unit": "°C"}, {"measurement": "EC50", "setting": "TBEV", "value": "10 ± 2.4", "unit": "µM"}, {"measurement": "CC50", "setting": "in vitro [4]", "value": "> 50", "unit": "µM"}]}
{"smiles": "O=S(=O)(c1cccs1)N(C1=NOC2CCCCCCC12)S(=O)(=O)c1cccs1", "note": "(centres unmarked) [5k, N-(3a,4,5,6,7,8,9,9a-Octahydrocycloocta[d]isoxazol-3-yl)-N-(thiophen-2-ylsulfonyl)thiophene-2-sulfonamide]", "values": [{"measurement": "EC50", "setting": "WNV", "value": "18 ± 4", "unit": "µM"}, {"measurement": "CC50", "setting": "in vitro [1]", "value": "> 50", "unit": "µM"}, {"measurement": "acute and chronic cytotoxicity in Vero cells (in words)", "setting": "Vero cells", "value": "both acute and chronic cytotoxicity"}, {"measurement": "CC50", "setting": "in vitro [2]", "value": "> 50", "unit": "µM"}, {"measurement": "melting point", "value": "131 to 132", "unit": "°C"}, {"measurement": "EC50", "setting": "TBEV", "value": "20 ± 3", "unit": "µM"}]}
{"smiles": "O=S(=O)(c1cccnc1)N(C1=NOC2CCCCCCC12)S(=O)(=O)c1cccnc1", "note": "(centres unmarked) [5l, N-(3a,4,5,6,7,8,9,9a-Octahydrocycloocta[d]isoxazol-3-yl)-N-(pyridin-3-ylsulfonyl)pyridine-3-sulfonamide]", "values": [{"measurement": "anti-WNV activity (in words)", "setting": "WNV", "value": "complete loss of anti-WNV activity"}, {"measurement": "EC50", "setting": "WNV", "value": "> 50", "unit": "µM"}, {"measurement": "CC50", "setting": "in vitro [1]", "value": "> 50", "unit": "µM"}, {"measurement": "CC50", "setting": "in vitro [2]", "value": "> 50", "unit": "µM"}, {"measurement": "CC50", "setting": "in vitro [3]", "value": "> 50", "unit": "µM"}, {"measurement": "melting point", "value": "150 to 151", "unit": "°C"}, {"measurement": "EC50", "setting": "TBEV", "value": "36 ± 4", "unit": "µM"}, {"measurement": "CC50", "setting": "in vitro [4]", "value": "> 50", "unit": "µM"}]}
{"smiles": "CC(C)CCN1C(=O)[C@]2(CC(=O)Nc3c2nnn3[C@@H](C)c2ccc(Cl)cc2)c2cc(Cl)ccc21", "note": "[JMX0254]", "values": [{"measurement": "EC50", "setting": "DENV-2", "value": 0.16, "unit": "µM"}, {"measurement": "EC50", "setting": "DENV-1", "value": 0.78, "unit": "µM"}, {"measurement": "EC50", "setting": "DENV-3", "value": 0.035, "unit": "µM"}]}
